Laboratory results: patent US20120010075A1 (priority 2009, published 2012)
Where two headings read alike, the source gives them in different places.

Legend:
[1] = tested on: Phytophthora infestans; type: in vivo, Phytophthora infestans on tomato; conditions: applied 24 h before inoculation, assessed 7 days after inoculation
[2] = tested on: Leptosphaeria nodorum (LEPTNO); test: In vitro fungitoxicity of hydrazones with and without copper towards Leptosphaeria nodorum (Example 26); type: cell-based; conditions: 72 h at 25° C.; for inhibition of growth at 0.05 µg/mL: Parastagonospora nodorum, 72 h, copper-minus medium, read-out: LEPTNO % Inhn. Minus Copper Observed
[3] = hydrazone 50 ppm + 50 μM CuCl2.2H2O, tomato
[4] = compound 0.05 μg/mL, copper-plus medium (CuCl2.2H2O)
[5] = hydrazone 50 ppm with 50 μM CuCl2.2H2O, tomato late blight
[6] = test compound Concn. 0.05 μg/mL
[7] = copper-plus medium (CuCl2 10 μM), test compound Concn. 0.05 μg/mL

Compound	TLB % Control [1, 3]	melting point	inhibition of growth at 0.05 µg/mL ([2]; compound 0.05 μg/mL)	LEPTNO % Inhn. Plus Copper Observed [2, 4]	TLB % Control [1, 5]	inhibition of growth at 0.05 µg/mL [2, 6]	LEPTNO % Inhn. Plus Copper Observed [2, 7]
C/C(=N\NC(=O)c1ccccc1C)c1cc(Br)ccc1O [Example 288]	26.0%	201 to 203 °C	1.8%	98.2%			
C/C(=N\NC(=O)c1cccc(C)c1)c1cc(Br)ccc1O [Example 289]	45.0%	227 to 233 °C	0%	97.6%			
C/C(=N\NC(=O)c1ccc(C)cc1)c1cc(Br)ccc1O [Example 290]	21.0%	245 to 248 °C	0.4%	95.5%			
C/C(=N\NC(=O)c1ccccc1Cl)c1cc(Br)ccc1O [Example 291]	67.0%	198 to 201 °C	2.2%	95.4%			
C/C(=N\NC(=O)c1cccc(Cl)c1)c1cc(Br)ccc1O [Example 292]	21.0%	235 to 240 °C	5%	97.6%			
O=C(N/N=C/c1ccc(C(F)(F)F)cc1O)c1ccccc1 [Example 294]	72.9%	215 to 217 °C	1.7%	94.2%			
O=C(N/N=C/c1cc(C(F)(F)F)cc(C(F)(F)F)c1O)c1ccccc1 [Example 295]	89.8%	232 to 234 °C	5.8%	98.0%			
O=C(N/N=C/c1cccc(C(F)(F)F)c1O)c1ccccc1 [Example 296]		170 to 173 °C			84.7%	8.3%	97.7%
O=C(N/N=C/c1c(O)cccc1C(F)(F)F)c1ccccc1 [Example 297]		228 to 230 °C			69.5%	0%	96.4%
CSc1cc(Br)c(O)c(/C=N/NC(=O)c2ccccc2)c1 [Example 298]		207 to 209 °C			74.6%	0.7%	95.0%
N#Cc1cc(Br)c(O)c(/C=N/NC(=O)c2ccccc2)c1 [Example 306]		290 to 291 °C			35.0%	0%	95.2%
N#Cc1cc(F)c(O)c(/C=N/NC(=O)c2ccccc2)c1 [Example 307]		262 to 263 °C			25.0%	0%	91.3%
Cc1ccc(C(=O)N/N=C/c2cc(Cl)cc(Cl)c2O)c(O)c1 [Example 308]		262 to 269 °C			96.0%	37.2%	97.7%
N#Cc1cccc(C(=O)N/N=C/c2cc(Cl)cc(Cl)c2O)c1 [Example 309]		252 to 271 °C			74.0%	5.5%	97.4%
N#Cc1ccc(C(=O)N/N=C/c2cc(Cl)cc(Cl)c2O)cc1 [Example 310]		234 to 270 °C			64.0%	2.4%	96.6%
C/C(=N\NC(=O)c1ccccc1)c1cc(C)ccc1O [Example 311]		197 to 199 °C			37.0%	3.3%	98.3%
C/C(=N\NC(=O)c1ccccc1C)c1cc(C)ccc1O [Example 312]		154 to 156 °C			1.4%	3.8%	97.8%
C/C(=N\NC(=O)c1cccc(C)c1)c1cc(C)ccc1O [Example 313]		182 to 184 °C			28.0%	8.5%	98.5%
C/C(=N\NC(=O)c1ccc(C)cc1)c1cc(C)ccc1O [Example 314]		206 to 208 °C			8.8%	0%	97.7%
C/C(=N\NC(=O)c1ccccc1Cl)c1cc(C)ccc1O [Example 315]		154 to 158 °C			18.0%	2.7%	95.8%
